{
  "source": "paper PMC4747340",
  "about": "“A new class of small molecule estrogen receptor-alpha antagonists that overcome anti-estrogen resistance” (Oncotarget, 2015)",
  "key": {"cathepsin D": {"tested_on": "cathepsin D", "assay": "Western blotting of cathepsin D (E2/ER-regulated gene) in MCF-7 cells", "type": "cell-based, human", "settings": "for E2-stimulated expression of cathepsin D: MCF-7, E2 10 nM, 24 hr; for cathepsin D levels, compound alone: MCF-7, no E2, 24 hr", "protocol": "MCF-7 cells in DMEM plus 5% CSS were subjected to the indicated treatment(s) for 24-hr and then harvested for Western blotting to detect cathepsin D or actin (control for loading and transfer). B., D. LCC9 cells were treated with vehicle only (DMSO) or the indicated compound for 24-hr and then harvested for Western blotting for cathepsin D and actin. The data shown in each panel are representative of three independent experiments.\nAfter the indicated cell treatment(s), the cells were harvested, and whole-cell lysates were prepared using RIPA buffer (Santa Cruz). Equal aliquots of whole-cell protein (either 100 μg unprecipitated whole-cell lysate or one half of the precipitated protein from 500-μg whole-cell lysate) were electrophoresed on 4-12% SDS-polyacrylamide gradient gels, transferred to nitrocellulose membranes (Millipore, Bedford, MA), and blotted using primary antibodies against BRCA1 (C-20, rabbit polyclonal, 1:200 dilution; Santa Cruz), cathepsin D (R-20, goat polyclonal, 1:300; Santa Cruz), ER (F10, mouse monoclonal, 1:500; Santa Cruz), or actin (goat polyclonal, sc-1615, 1:400; Santa Cruz). The membranes were blotted with the appropriate secondary antibodies (1:1000; Santa Cruz), and the blotted proteins were visualized using an […] detection system (Amersham Biosciences), with colored markers (Bio-Rad Laboratories, Hercules, CA) as molecular size standards."}, "ER Glu323Ala": {"target": "T1, ER Glu323Ala (Homo sapiens, UniProt P03372, E323A)", "T1 construct": "expressed in transfected cells; host or cells: MDA-MB-231", "T1 sequence (P03372 whole entry E323A)": "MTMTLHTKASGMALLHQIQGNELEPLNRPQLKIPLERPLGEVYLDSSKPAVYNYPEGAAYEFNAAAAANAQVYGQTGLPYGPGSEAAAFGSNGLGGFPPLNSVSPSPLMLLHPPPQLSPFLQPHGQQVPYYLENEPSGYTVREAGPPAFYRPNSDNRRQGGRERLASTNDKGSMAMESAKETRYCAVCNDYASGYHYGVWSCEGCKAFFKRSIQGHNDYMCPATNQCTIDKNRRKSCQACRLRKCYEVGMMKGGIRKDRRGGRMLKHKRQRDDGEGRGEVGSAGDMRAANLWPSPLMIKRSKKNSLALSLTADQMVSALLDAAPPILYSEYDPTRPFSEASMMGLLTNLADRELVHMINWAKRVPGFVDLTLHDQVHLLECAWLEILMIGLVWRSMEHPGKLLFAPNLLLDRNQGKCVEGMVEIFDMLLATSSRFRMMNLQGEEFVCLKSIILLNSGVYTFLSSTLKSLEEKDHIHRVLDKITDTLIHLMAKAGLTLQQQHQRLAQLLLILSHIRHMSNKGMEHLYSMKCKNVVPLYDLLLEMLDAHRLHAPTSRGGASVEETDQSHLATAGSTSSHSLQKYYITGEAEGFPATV", "assay": "ER mutation analysis, ERE-TK-Luc reporter in transfected MDA-MB-231 cells", "type": "cell-based", "settings": "MDA-MB-231 transfected with mutant ER, E2 10 nM, 24 hr", "source_text": "(§1) B., C. Panels B and C show a comparison of the ER interaction of one of our original series of compounds (A7) (B) and one new compounds (48693-K/1) (C). ER is represented by gray ribbon and its residues interacting with the compounds are drawn with wireframe and labeled. […] The hydrogen bond interaction with ARG 394 is shown in green line. […] The cells were harvested for luciferase assays. Luciferase values are expressed as a percent of the +E2 vehicle control and are means ± SEMs of four wells. The data shown in panels D to G are representative of three independent experiments.\n(§2) Subconfluent cells in 24-well dishes were transfected overnight with 0.25 μg of each indicated vector plus the ERE-TK-Luc reporter in serum-free DMEM containing Lipofectamine2000 (Life Technologies, Washington, DC). Total transfected DNA was kept constant by addition of control vector. The cells were washed, incubated in phenol red-free DMEM containing 5% charcoal-stripped serum (obtained from the Tissue Culture Shared Resource) (0.2 ml/well) ± E2 (10 nM) ± the indicated compound for 24-hr, and harvested for luciferase assays. For each assay condition was tested in quadrupicate. To monitor the transfection efficiency, cultures were co-transfected with plasmid pRSV-β-gal (Promega, Madison, WI) to visualize transfected cells by X-gal staining."}, "ER Arg394Ala": {"target": "T2, ER Arg394Ala (Homo sapiens, UniProt P03372, R394A)", "T2 construct": "expressed in transfected cells; host or cells: MDA-MB-231", "T2 sequence (P03372 whole entry R394A)": "as the sequence (P03372 whole entry E323A) above, with A323E, R394A counted along it", "assay": "ER mutation analysis, ERE-TK-Luc reporter in transfected MDA-MB-231 cells", "type": "cell-based", "settings": "MDA-MB-231 transfected with mutant ER, E2 10 nM, 24 hr", "source_text": "as §1, §2"}, "Wild-type ER": {"target": "T3, Wild-type ER (Homo sapiens, UniProt P03372)", "T3 construct": "expressed in transfected cells; host or cells: MDA-MB-231", "assay": "ER mutation analysis, ERE-TK-Luc reporter in transfected MDA-MB-231 cells", "type": "cell-based", "settings": "MDA-MB-231 transfected with wtER, E2 10 nM, 24 hr", "source_text": "as §1, §2"}, "ER Ile326Ala": {"target": "T4, ER Ile326Ala (Homo sapiens, UniProt P03372, I326A)", "T4 construct": "expressed in transfected cells; host or cells: MDA-MB-231", "T4 sequence (P03372 whole entry I326A)": "as the sequence (P03372 whole entry E323A) above, with A323E, I326A counted along it", "assay": "ER mutation analysis, ERE-TK-Luc reporter in transfected MDA-MB-231 cells", "type": "cell-based", "settings": "MDA-MB-231 transfected with mutant ER, E2 10 nM, 24 hr", "source_text": "as §1, §2"}, "ER Pro325Ala": {"target": "T5, ER Pro325Ala (Homo sapiens, UniProt P03372, P325A)", "T5 construct": "expressed in transfected cells; host or cells: MDA-MB-231", "T5 sequence (P03372 whole entry P325A)": "as the sequence (P03372 whole entry E323A) above, with A323E, P325A counted along it", "assay": "ER mutation analysis, ERE-TK-Luc reporter in transfected MDA-MB-231 cells", "type": "cell-based", "settings": "MDA-MB-231 transfected with mutant ER, E2 10 nM, 24 hr", "source_text": "as §1, §2"}, "ER Leu387Ala": {"target": "T6, ER Leu387Ala (Homo sapiens, UniProt P03372, L387A)", "T6 construct": "expressed in transfected cells; host or cells: MDA-MB-231", "T6 sequence (P03372 whole entry L387A)": "as the sequence (P03372 whole entry E323A) above, with A323E, L387A counted along it", "assay": "ER mutation analysis, ERE-TK-Luc reporter in transfected MDA-MB-231 cells", "type": "cell-based", "settings": "MDA-MB-231 transfected with mutant ER, E2 10 nM, 24 hr", "source_text": "as §1, §2"}, "ER Leu327Ala": {"target": "T7, ER Leu327Ala (Homo sapiens, UniProt P03372, L327A)", "T7 construct": "expressed in transfected cells; host or cells: MDA-MB-231", "T7 sequence (P03372 whole entry L327A)": "as the sequence (P03372 whole entry E323A) above, with A323E, L327A counted along it", "assay": "ER mutation analysis, ERE-TK-Luc reporter in transfected MDA-MB-231 cells", "type": "cell-based", "settings": "MDA-MB-231 transfected with mutant ER, E2 10 nM, 24 hr", "source_text": "as §1, §2"}, "ER His356Ala": {"target": "T8, ER His356Ala (Homo sapiens, UniProt P03372, H356A)", "T8 construct": "expressed in transfected cells; host or cells: MDA-MB-231", "T8 sequence (P03372 whole entry H356A)": "as the sequence (P03372 whole entry E323A) above, with A323E, H356A counted along it", "assay": "ER mutation analysis, ERE-TK-Luc reporter in transfected MDA-MB-231 cells", "type": "cell-based", "settings": "MDA-MB-231 transfected with mutant ER, E2 10 nM, 24 hr", "source_text": "as §1, §2"}, "ER Ile386Ala+Leu387Ala": {"target": "T9, ER Ile386Ala+Leu387Ala (Homo sapiens, UniProt P03372, I386A/L387A)", "T9 construct": "expressed in transfected cells; host or cells: MDA-MB-231", "T9 sequence (P03372 whole entry I386A/L387A)": "as the sequence (P03372 whole entry E323A) above, with A323E, I386A, L387A counted along it", "assay": "ER mutation analysis, ERE-TK-Luc reporter in transfected MDA-MB-231 cells", "type": "cell-based", "settings": "MDA-MB-231 transfected with mutant ER, E2 10 nM, 24 hr", "source_text": "as §1, §2"}, "ER Ile386Ala": {"target": "T10, ER Ile386Ala (Homo sapiens, UniProt P03372, I386A)", "T10 construct": "expressed in transfected cells; host or cells: MDA-MB-231", "T10 sequence (P03372 whole entry I386A)": "as the sequence (P03372 whole entry E323A) above, with A323E, I386A counted along it", "assay": "ER mutation analysis, ERE-TK-Luc reporter in transfected MDA-MB-231 cells", "type": "cell-based", "settings": "MDA-MB-231 transfected with mutant ER, E2 10 nM, 24 hr", "source_text": "as §1, §2"}, "ER Trp393Ala": {"target": "T11, ER Trp393Ala (Homo sapiens, UniProt P03372, W393A)", "T11 construct": "expressed in transfected cells; host or cells: MDA-MB-231", "T11 sequence (P03372 whole entry W393A)": "as the sequence (P03372 whole entry E323A) above, with A323E, W393A counted along it", "assay": "ER mutation analysis, ERE-TK-Luc reporter in transfected MDA-MB-231 cells", "type": "cell-based", "settings": "MDA-MB-231 transfected with mutant ER, E2 10 nM, 24 hr", "source_text": "as §1, §2"}, "ER Glu353Ala": {"target": "T12, ER Glu353Ala (Homo sapiens, UniProt P03372, E353A)", "T12 construct": "expressed in transfected cells; host or cells: MDA-MB-231", "T12 sequence (P03372 whole entry E353A)": "as the sequence (P03372 whole entry E323A) above, with A323E, E353A counted along it", "assay": "ER mutation analysis, ERE-TK-Luc reporter in transfected MDA-MB-231 cells", "type": "cell-based", "settings": "MDA-MB-231 transfected with mutant ER, E2 10 nM, 24 hr", "source_text": "as §1, §2"}, "ER Lys449Ala": {"target": "T13, ER Lys449Ala (Homo sapiens, UniProt P03372, K449A)", "T13 construct": "expressed in transfected cells; host or cells: MDA-MB-231", "T13 sequence (P03372 whole entry K449A)": "as the sequence (P03372 whole entry E323A) above, with A323E, K449A counted along it", "assay": "ER mutation analysis, ERE-TK-Luc reporter in transfected MDA-MB-231 cells", "type": "cell-based", "settings": "MDA-MB-231 transfected with mutant ER, E2 10 nM, 24 hr", "source_text": "as §1, §2"}, "ER Pro324Ala": {"target": "T14, ER Pro324Ala (Homo sapiens, UniProt P03372, P324A)", "T14 construct": "expressed in transfected cells; host or cells: MDA-MB-231", "T14 sequence (P03372 whole entry P324A)": "as the sequence (P03372 whole entry E323A) above, with A323E, P324A counted along it", "assay": "ER mutation analysis, ERE-TK-Luc reporter in transfected MDA-MB-231 cells", "type": "cell-based", "settings": "MDA-MB-231 transfected with mutant ER, E2 10 nM, 24 hr", "source_text": "as §1, §2"}, "ER-β": {"target": "T15, ER-β (Homo sapiens, UniProt Q92731)", "T15 construct": "host or cells: DU-145", "T15 sequence (Q92731 whole entry)": "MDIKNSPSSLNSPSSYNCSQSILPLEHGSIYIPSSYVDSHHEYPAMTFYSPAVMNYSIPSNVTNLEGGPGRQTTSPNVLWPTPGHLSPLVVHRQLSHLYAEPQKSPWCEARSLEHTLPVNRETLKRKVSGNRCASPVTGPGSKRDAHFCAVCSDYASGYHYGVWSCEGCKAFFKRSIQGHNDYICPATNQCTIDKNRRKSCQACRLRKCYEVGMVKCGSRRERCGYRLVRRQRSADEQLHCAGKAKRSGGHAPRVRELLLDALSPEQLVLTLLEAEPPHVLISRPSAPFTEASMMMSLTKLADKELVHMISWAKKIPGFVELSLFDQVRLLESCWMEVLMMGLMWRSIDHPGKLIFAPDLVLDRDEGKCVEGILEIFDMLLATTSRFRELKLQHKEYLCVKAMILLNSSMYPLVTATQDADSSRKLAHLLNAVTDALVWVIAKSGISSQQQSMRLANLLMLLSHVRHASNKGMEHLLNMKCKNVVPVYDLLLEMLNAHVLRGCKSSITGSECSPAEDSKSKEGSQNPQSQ", "assay": "E2-stimulated ER-β activity, ERE-TK-Luc reporter in transfected DU-145 cells", "type": "cell-based", "protocol": "Figure 12 Compound 35446 inhibits the activity of ER-β Subconfluent proliferating DU-145 cells in 24-well dishes were transfected overnight with the ER=α or ER=β expression vector plus the ERE-TK-Luc reporter plasmid (0.25 μg per plasmid/well), washed, and allowed to recover for several hours in fresh culture medium. The cells were then post-incubated for 24 hr to allow gene expression, after which they were treated ± E2 (10 nM) and ± compound 35446 (20 μM) (or compound B2 as a negative control) for 24 hr and assayed for luciferase activity. Luciferase activity is expressed relative to the no E2 control. Values are means ± SEMs of four replicate wells. The data shown in each panel are representative of three independent experiments.\nTo determine the effect of compound on ER-β activity, an ER- β expression plasmid (cat. no.: 35562, Addgene, Cambridge) was co-transfected into ER- DU-145 human prostate carcinoma cells along with the ERE-TK-Luc reporter plasmid (0.25 μg of each plasmid) and the cells were incubated overnight to allow gene expression. The cells were then treated ± E2 (10 nM) and ± the indicated compound for 24-hr, and harvested for luciferase assays as above."}},
  "data": [
    {"smiles": "O=C(c1cc(Br)ccc1O)c1cc(Br)ccc1O", "note": "[4631-P/1]", "values": [
      {"measurement": "E2-stimulated expression of cathepsin D", "setting": "cathepsin D", "result": "blocked E2-stimulated expression of cathepsin D"},
      {"measurement": "cathepsin D levels, compound alone", "setting": "cathepsin D", "result": "little or no effect"}
    ]},
    {"smiles": "O=C(CC(c1ccccc1)N1CCCCC1)c1ccccc1", "note": "(centres unmarked) [35446-L/1, 1,3-diphenyl-3-(piperidin-1-yl)propan-1-one]", "values": [
      {"measurement": "IC50", "setting": "ER Glu323Ala", "result": 0.9, "unit": "µM"},
      {"measurement": "IC50", "setting": "ER Arg394Ala", "result": "> 15", "unit": "µM"},
      {"measurement": "IC50", "setting": "Wild-type ER", "result": 0.8, "unit": "µM"},
      {"measurement": "IC50", "setting": "ER Ile326Ala", "result": 4, "unit": "µM"},
      {"measurement": "IC50", "setting": "ER Pro325Ala", "result": 0.9, "unit": "µM"},
      {"measurement": "IC50", "setting": "ER Leu387Ala", "result": 5, "unit": "µM"},
      {"measurement": "IC50", "setting": "ER Leu327Ala", "result": 0.9, "unit": "µM"},
      {"measurement": "IC50", "setting": "ER His356Ala", "result": 0.8, "unit": "µM"},
      {"measurement": "IC50", "setting": "ER Ile386Ala+Leu387Ala", "result": "> 15", "unit": "µM"},
      {"measurement": "IC50", "setting": "ER Ile386Ala", "result": 4, "unit": "µM"},
      {"measurement": "IC50", "setting": "ER Trp393Ala", "result": "> 15", "unit": "µM"},
      {"measurement": "IC50", "setting": "ER Glu353Ala", "result": "> 10", "unit": "µM"},
      {"measurement": "IC50", "setting": "ER Lys449Ala", "result": "> 15", "unit": "µM"},
      {"measurement": "IC50", "setting": "ER Pro324Ala", "result": "> 15", "unit": "µM"},
      {"measurement": "E2-stimulated expression of cathepsin D", "setting": "cathepsin D", "result": "blocked E2-stimulated expression of cathepsin D"},
      {"measurement": "cathepsin D levels, compound alone", "setting": "cathepsin D", "result": "little or no effect"},
      {"measurement": "inhibition at 20 µM", "setting": "ER-β; DU-145, read-out: inhibition of E2-stimulated ER-β activity", "result": "~67", "unit": "%"},
      {"measurement": "IC50", "setting": "ER-β; DU-145 transfected with ER-β, E2 10 nM, 24 hr, read-out: IC50 for inhibition of ER-β activity", "result": 2, "unit": "µM"}
    ]}
  ]
}
